Where two headings read alike, the source gives them in different places. Peptide text beside a SMILES is read from it. * marks the point of attachment. 5FAM = O=C1OC2(c3ccc(O)cc3Oc3cc(O)ccc32)c2ccc(C(=O)*)cc21; AMC = Cc1cc(=O)oc2cc(N*)ccc12; Cbz = O=C(OCc1ccccc1)*
Legend:
Format in all cases: biochemical
human plasma kallikrein [1] = target: T1, human plasma kallikrein (Homo sapiens, UniProt P03952); assay: Kinetic parameters of the substrate Z-Gly-Pro-Arg-AMC with kallikrein (Michaelis-Menten fit)
T1 sequence (P03952 391-638 limits assumed): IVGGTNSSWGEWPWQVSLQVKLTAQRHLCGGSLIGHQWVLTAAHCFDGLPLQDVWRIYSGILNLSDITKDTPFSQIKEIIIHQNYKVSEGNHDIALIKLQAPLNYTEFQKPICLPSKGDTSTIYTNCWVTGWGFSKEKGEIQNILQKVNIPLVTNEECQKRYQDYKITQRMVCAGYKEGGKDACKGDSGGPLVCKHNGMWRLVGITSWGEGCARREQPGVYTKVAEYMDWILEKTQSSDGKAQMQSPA
T1 sequence (P03952 20-390 partner limits assumed): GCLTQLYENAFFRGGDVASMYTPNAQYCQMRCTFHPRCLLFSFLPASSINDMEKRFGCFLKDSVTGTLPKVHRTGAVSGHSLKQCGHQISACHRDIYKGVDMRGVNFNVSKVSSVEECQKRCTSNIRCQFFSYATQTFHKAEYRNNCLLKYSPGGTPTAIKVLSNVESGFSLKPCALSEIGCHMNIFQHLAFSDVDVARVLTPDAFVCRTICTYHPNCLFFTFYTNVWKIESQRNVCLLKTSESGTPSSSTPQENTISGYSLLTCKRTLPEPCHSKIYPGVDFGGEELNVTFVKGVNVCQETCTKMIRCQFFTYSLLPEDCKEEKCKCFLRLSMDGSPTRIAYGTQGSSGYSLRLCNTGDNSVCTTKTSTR
Excerpt: A fluorescence intensity (FLINT) based assay was used to monitor inhibition of human plasma kallikrein. The peptide substrate, Z-Gly-Pro-Arg-AMC (Purchased from Bachem; Catalog #1-1150) was chosen based on its relatively low KM for kallikrein which enables running the assay at lower substrate concentrations to control background fluorescence.

Factor XIa [2] = target: T2, Factor XIa (Homo sapiens, UniProt P03951); assay: Kinetic parameters of the peptide substrate 5Fam-KLTRAETV-K5Tamra with FXIa (substrate inhibition model)
T2 sequence (P03951 388-625 limits assumed): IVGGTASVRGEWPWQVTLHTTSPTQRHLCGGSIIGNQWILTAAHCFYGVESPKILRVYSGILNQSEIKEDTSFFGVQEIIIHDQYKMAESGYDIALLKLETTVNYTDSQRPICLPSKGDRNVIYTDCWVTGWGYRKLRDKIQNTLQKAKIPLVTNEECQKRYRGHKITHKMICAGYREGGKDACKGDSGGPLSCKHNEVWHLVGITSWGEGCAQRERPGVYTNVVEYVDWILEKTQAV
T2 sequence (P03951 19-387 partner limits assumed): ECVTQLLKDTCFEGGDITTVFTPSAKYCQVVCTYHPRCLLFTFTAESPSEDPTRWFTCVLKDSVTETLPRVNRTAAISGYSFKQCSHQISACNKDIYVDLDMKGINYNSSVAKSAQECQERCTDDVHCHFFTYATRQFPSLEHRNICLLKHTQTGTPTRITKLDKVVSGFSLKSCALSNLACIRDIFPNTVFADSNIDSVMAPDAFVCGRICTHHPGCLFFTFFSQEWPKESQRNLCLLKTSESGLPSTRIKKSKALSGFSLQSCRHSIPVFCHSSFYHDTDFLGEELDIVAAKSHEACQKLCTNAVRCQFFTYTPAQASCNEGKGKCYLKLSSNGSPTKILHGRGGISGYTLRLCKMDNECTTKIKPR
Excerpt: A fluorescence intensity (FLINT) based assay was used to monitor inhibition of Factor XIa. The peptide substrate, 5Fam-KLTRAETV-K5Tamra (purchased from New England Peptide) was chosen based on the FXI sequence. Conversion of zymogen FXI to its activated form, FXIa, occurs by proteolytic cleavage by […] at two sites, Arg146 and Arg180. The custom peptide used in this assay was based on the Arg146 cleavage site of FXI. The peptide substrate was designed with a fluorophore-quencher pair, where the fluorescence is quenched until FXIa cleaves the 8-mer peptide after the Arg residue.

Factor XIa [3] = target: T2, Factor XIa; assay: Factor XIa inhibition assay utilizing a fluorophore-quencher pair peptide substrate (FLINT); settings: for IC50: read-out: FXIa IC50; for Ki: read-out: FXIa Ki
In short: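 Enzyme preincubated 30 min at room temperature with compound (11-point 3-fold dilution, top 100 nM, 2% DMSO), then 15 μM 5Fam-KLTRAETV-K5Tamra substrate added. Buffer: 50 mM Tris pH 7.5, 100 mM NaCl, 5 mM CaCl2, 0.1 mg/mL BSA, 0.03% CHAPS. Fluorescence (485/520 nm) read kinetically over 30 min; IC50 from 4-parameter logistic fit.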

human plasma kallikrein [4] = target: T1, human plasma kallikrein; assay: Kallikrein inhibition assay utilizing a quenched AMC peptide substrate (FLINT); settings: 30 min preincubation, 50 μM Z-Gly-Pro-Arg-AMC, 2 nM kallikrein
In short: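 Human plasma kallikrein (2 nM final) was preincubated 30 min at room temperature with compound (11-point 3-fold dilution, top 1 μM, 2% DMSO) in pH 7.5 Tris buffer with CaCl2, BSA and CHAPS. Z-Gly-Pro-Arg-AMC (50 μM final) fluorescence was read at 340/440 nm every 5 min for 30 min. IC50 came from a 4-parameter logistic fit.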

[5] = cells that print μM themselves in the nM column, same assay conditions
[6] = 30 min preincubation, 5Fam-KLTRAETV-K5Tamra substrate 15 μM final, kinetic reads
[7] = cells that print μM themselves in the nM column

Compound	IC50 (Factor XIa [3]; [5])	Ki (Factor XIa [3])	IC50 (human plasma kallikrein [4])	IC50 (Factor XIa [3]; [6])	Ki (Factor XIa [3]; [7])	other results
Cc1cc(=O)oc2cc(NC(=O)[C@H](CCCNC(=N)N)NC(=O)[C@@H]3CCCN3C(=O)CNC(=O)OCc3ccccc3)ccc12 [Z-Gly-Pro-Arg-AMC] (Cbz-Gly-Pro-Arg-{AMC})	–	–	–	–	–	kcat (human plasma kallikrein [1]): 0.76 s⁻¹
5Fam-KLTRAETV-K5Tamra (5FAM-KLTRAETV-{K(5-TAMRA)}) [fluorophore-quencher pair peptide substrate based on the Arg146 cleavage site of FXI, purchased from New England Peptide]	–	–	–	–	–	Ki (Factor XIa [2]; substrate inhibition constant): 61.6 µM; Km (Factor XIa [2]; substrate with FXIa): 12.4 µM; kcat (Factor XIa [2]; substrate with FXIa): 0.86 s⁻¹
Cn1cncc1-c1cnc([C@@H]2CCc3c4c(cc(=O)n32)-c2c(ccc(Cl)c2F)CC2(CC2)NC4=O)[nH]1 (stereo in doubt) [Compound 50, (S*)-7-chloro-8-fluoro-12-(3′-methyl-3H,3′H-[4,4′-biimidazol]-2-yl)-13,14-dihydro-2H-spiro[benzo[5,6]azocino[4,3-g]indolizine-3,1′-cyclopropane]-1,10(4H,12H)-dione]	–	0.15 µM	> 20 µM	0.301 µM	–	–
Cn1nncc1-c1cnc([C@@H]2CCc3c4c(cc(=O)n32)-c2c(ccc(Cl)c2F)CCNC4=O)[nH]1 (stereo in doubt) [Compound 44, (S*)-7-chloro-8-fluoro-12-(5-(1-methyl-1H-1,2,3-triazol-5-yl)-1H-imidazol-2-yl)-3,4,13,14-tetrahydrobenzo[5,6]azocino[4,3-g]indolizine-1,10(2H,12H)-dione]	> 10 µM	–	> 10 µM	–	> 5 µM	–
O=C1NC2(CC2)Cc2ccc(Cl)c(F)c2-c2cc(=O)n3c(c21)CC[C@H]3c1ncc(-c2ccc3scnc3c2)[nH]1 (stereo in doubt) [Compound 27, (S*)-12-(5-(benzo[d]thiazol-5-yl)-1H-imidazol-2-yl)-7-chloro-8-fluoro-13,14-dihydro-2H-spiro[benzo[5,6]azocino[4,3-g]indolizine-3,1′-cyclopropane]-1,10(4H,12H)-dione]	2.39 µM	–	> 10 µM	–	1.19 µM	–
O=C1NC2(CC2)Cc2ccc(Cl)c(F)c2-c2cc(=O)n3c(c21)CC[C@H]3c1ncc(-c2ccn3cnnc3c2)[nH]1 (stereo in doubt) [Compound 15, (S*)-12-(5-([1,2,4]triazolo[4,3-a]pyridin-7-yl)-1H-imidazol-2-yl)-7-chloro-8-fluoro-13,14-dihydro-2H-spiro[benzo[5,6]azocino[4,3-g]indolizine-3,1′-cyclopropane]-1,10(4H,12H)-dione]	5.82 µM	–	> 10 µM	–	2.91 µM	–

More lines, main results first:

IC50 (Factor XIa [3]; [5])	Ki (Factor XIa [3])	IC50 (human plasma kallikrein [4])	IC50 (Factor XIa [3]; [6])	Ki (Factor XIa [3]; [7])	Compound	other results
1.18 µM	0.588 µM	> 10 µM	–	–	O=C1NC2(CC2)Cc2ccc(Cl)c(F)c2-c2cc(=O)n3c(c21)CC[C@H]3c1ncc(-c2ccc3snnc3c2)[nH]1 (stereo in doubt) [Compound 31, (S*)-12-(5-(benzo[d][1,2,3]thiadiazol-5-yl)-1H-imidazol-2-yl)-7-chloro-8-fluoro-13,14-dihydro-2H-spiro[benzo[5,6]azocino[4,3-g]indolizine-3,1′-cyclopropane]-1,10(4H,12H)-dione]	–
–	0.0012 µM	0.21 µM	0.0023 µM	–	Nc1ccc(-c2cnc([C@H]3CCc4c5c(cc(=O)n43)-c3c(ccc(Cl)c3F)CCNC5=O)[nH]2)c(Cl)n1 (stereo in doubt) [Compound 48, (R*)-12-(5-(6-amino-2-chloropyridin-3-yl)-1H-imidazol-2-yl)-7-chloro-8-fluoro-3,4,13,14-tetrahydrobenzo[5,6]azocino[4,3-g]indolizine-1,10(2H,12H)-dione]	–
–	0.001 µM	0.06 µM	0.0021 µM	–	Cc1nc2cc(-c3cnc([C@H]4CCc5c6c(cc(=O)n54)-c4c(ccc(Cl)c4F)CC4(CC4)NC6=O)[nH]3)ccc2s1 (stereo in doubt) [Compound 5, (R*)-7-chloro-8-fluoro-12-(5-(2-methylbenzo[d]thiazol-5-yl)-1H-imidazol-2-yl)-13,14-dihydro-2H-spiro[benzo[5,6]azocino[4,3-g]indolizine-3,1′-cyclopropane]-1,10(4H,12H)-dione]	–
–	0.441 µM	> 10 µM	0.882 µM	–	O=C1NC2(CC2)Cc2ccc(Cl)c(F)c2-c2cc(=O)n(C(CC3CC3)c3ncc(-c4cc[n+]([O-])cc4)[nH]3)cc21 (single isomer, unassigned) [Compound 56, (S*)-4-(2-(1-(11-chloro-12-fluoro-2,5-dioxo-2,5,6,8-tetrahydro-3H-spiro[benzo[e]pyrido[3,4-c]azocine-7,1′-cyclopropan]-3-yl)-2-cyclopropylethyl)-1H-imidazol-5-yl)pyridine 1-oxide]	–
–	0.0005 µM	0.02 µM	0.001 µM	–	O=C1NC2(CC2)Cc2ccc(Cl)c(F)c2-c2cc(=O)n3c(c21)CC[C@@H]3c1ncc(-c2ccc3[nH]ncc3c2)[nH]1 (stereo in doubt) [Compound 19, (R*)-12-(5-(1H-indazol-5-yl)-1H-imidazol-2-yl)-7-chloro-8-fluoro-13,14-dihydro-2H-spiro[benzo[5,6]azocino[4,3-g]indolizine-3,1′-cyclopropane]-1,10(4H,12H)-dione]	–
> 10 µM	–	> 10 µM	–	> 5 µM	CN1C(=O)c2c(cc(=O)n3c2CC[C@@H]3c2ncc(-c3ccc(N)nc3F)[nH]2)-c2c(ccc(Cl)c2F)CC12CC2 (stereo in doubt) [Compound 40, (R*)-12-(5-(6-amino-2-fluoropyridin-3-yl)-1H-imidazol-2-yl)-7-chloro-8-fluoro-2-methyl-13,14-dihydro-2H-spiro[benzo[5,6]azocino[4,3-g]indolizine-3,1′-cyclopropane]-1,10(4H,12H)-dione]	–
1.13 µM	0.564 µM	> 10 µM	–	–	O=C1NC2(CC2)Cc2ccc(Cl)c(F)c2-c2cc(=O)n(C(CC3CC3)c3ncc(-c4ccc(F)cc4)[nH]3)cc21 (single isomer, unassigned) [Compound 64, (R*)-11-chloro-3-(2-cyclopropyl-1-(5-(4-fluorophenyl)-1H-imidazol-2-yl)ethyl)-12-fluoro-3H-spiro[benzo[e]pyrido[3,4-c]azocine-7,1′-cyclopropane]-2,5(6H,8H)-dione]	–

Reference: patent publication US11897880B2, “7,8-dihydrobenzo[e]pyrido[3,4-c]azocine-2,5(3H,6H)-dione derivatives useful as a factor XIa inhibitors” (Janssen Pharmaceutica NV, priority 2021, dated 2024)
